Experimental data reported in US20240024298A1, “COMPOSITIONS AND METHODS FOR THE TREATMENT OF HPV-ASSOCIATED DISEASE STATES” (Children's Hospital Medical Center, priority 2022, published 2024).

Tests used:
Assay type in all cases: cell-based
[1] = system: HPV− keratinocytes grown into organotypic epithelial rafts; test: EdU proliferation in HPV− organotypic epithelial rafts
Procedure: (§1) On raft day 14, the tissues were harvested and lysed with RIPA buffer to extract protein for western blotting. […] Beta-actin was used to show equal protein loading. (B) HPV− and HPV+ rafts were treated with increasing doses of OSMI-1, an inhibitor of OGT activity, from day 8 to day 14 of the raft culturing protocol. EdU, a thymidine analog that incorporates into DNA during DNA synthesis, was added to the media on day 13. 24 h later, on raft day 14, tissues were fixed in PFA for paraffin-embedding, sectioning, and immunofluorescence (IF) staining. Representative IF images are shown with nuclei stained with DAPI (blue), and proliferating cells visualized with click chemistry to detect EdU incorporation (pink). Quantification of the number of EdU+ cells per field is shown to the right. […] 2-way ANOVA was used to determine significance. Representative images shown. n=3.
(§2) Representative IF images are shown with nuclei stained with DAPI (blue), proliferating cells visualized with click chemistry to detect EdU incorporation (white), basal cell layer keratinocytes stained with collagen 17A (COL17A; green) and differentiated layer keratinocytes stained with keratin 10 (K10; red). Quantifications of the total (top graph) and suprabasal (lower graph) number of EdU+ cells per field are shown to the right. […] 2-way ANOVA was used to determine significance. Representative images shown. n=3.

[2] = system: HPV+ keratinocytes grown into organotypic epithelial rafts; test: EdU proliferation in HPV+ organotypic epithelial rafts
Procedure: as §1, §2

[3] = system: HPV+ keratinocytes 3D spheroids; test: 3D spheroid area, brightfield microscopy; settings: HPV+ spheres, culture day 4, n=4
Procedure: FIG. 3 (A) HPV+ and HPV− keratinocytes were seeded in round-bottom plates to form 3D spheroids (Day 0). 48 h after plating the cells (Day 2), increasing doses of Eliglustat were added to the media. 48 h after adding the drug treatment (Day 4), spheroids were imaged with brightfield microscopy and images quantified for sphere area. n=4. (B) Quantification of sphere area on culture day 4 after treatment with increasing doses of Eliglustat for 48 h.

[4] = 6.25 uM OSMI-1, treated raft day 8 to day 14, EdU added day 13, n=3
[5] = 25 uM OSMI-1 (highest dose tested), raft day 8 to day 14
[6] = increasing doses of Eliglustat, raft day 8 to day 14, EdU added day 13, n=3

COc1ccccc1[C@@H](NS(=O)(=O)c1ccc2[nH]c(=O)ccc2c1)C(=O)N(Cc1ccco1)Cc1cccs1 [OSMI-1]
Proliferation (number of EdU+ cells per field) [1, 4]: no effect on proliferation | Proliferation (number of EdU+ cells per field) [1, 5]: decreased proliferation | Proliferation (number of EdU+ cells per field) [2, 4]: significantly decreased | Proliferation (number of EdU+ cells per field) [2, 5]: decreased proliferation

CCCCCCCC(=O)N[C@H](CN1CCCC1)[C@H](O)c1ccc2c(c1)OCCO2 [Eliglustat]
Sphere area ([3]; 25 uM Eliglustat (highest dose tested), 48 h): significantly reduce HPV+ sphere area to that of HPV− spheres | Sphere area ([3]; increasing doses of Eliglustat for 48 h): decreased concomitantly with increasing Eliglustat dose | Proliferation (total and suprabasal number of EdU+ cells per field) [1, 6]: no significant effect on proliferation | Proliferation (total and suprabasal number of EdU+ cells per field) [2, 6]: significantly decreased with increasing dose
